From ChEMBL document CHEMBL4651402, “Screening of ~5500 FDA-approved drugs and clinical candidates for anti-SARS-CoV-2 activity” (2021)

System: SARS-CoV-2
Experiment: microbe, parasite or virus in culture
Conditions: Severe acute respiratory syndrome coronavirus 2, Vero C1008, 48 h

Row | Structure (SMILES) | IC50 [µM] | IC50 (read-out: pIC50 (converted)) [µM]
1 | CC(C)NCC(O)COc1ccc(CC(N)=O)cc1 (racemic) [ATENOLOL] | > 20 | > 20
2 | NC(Cc1ccc(Cl)cc1)C(=O)O (racemic) [FENCLONINE] | > 20 | > 20
3 | COC1=CC(=O)O[C@@H](/C=C/c2ccccc2)C1 (racemic) [KAVAIN] | > 20 | > 20
4 | CC(C)N1CCN(c2ccc(N3CCN(c4ccc(OC[C@H]5OC[C@](Cn6cncn6)(c6ccc(F)cc6F)O5)cc4)CC3)cc2)C1=O (racemic) [PRAMICONAZOLE] | > 20 | > 20
5 | CC(CN1CCOCC1)C(C(=O)N1CCCC1)(c1ccccc1)c1ccccc1 (racemic) [RACEMORAMIDE] | > 20 | > 20
6 | CCC(CC)C(c1ccc(Nc2nc3ccccc3s2)cc1)n1cncn1 (racemic) [TALAROZOLE] | > 20 | > 20
7 | C[C@H]1NC(=O)CO[C@@H]1c1ccccc1 (relative stereo) | > 20 | > 20
8 | C[C@@H]1N=C(N)O[C@@H]1c1ccccc1 (relative stereo) | > 20 | > 20
9 | CO[C@H]1C=C2CCN(C)[C@H]2[C@@H]2c3cc4c(cc3C(=O)O[C@H]21)OCO4 (single isomer, unassigned) | > 20 | > 20
10 | COc1ccc2c(O[C@H]3C[C@@H]4C(=O)N[C@@]5(C(=O)NS(=O)(=O)C6CC6)C[C@@H]5/C=C\CCCCN(C)C(=O)[C@H]4C3)cc(-c3nc(C(C)C)cs3)nc2c1C (single isomer, unassigned) | > 20 | > 20
11 | CCCn1c(=O)c2[nH]c(C3CCCC3)nc2n(CCC)c1=O [1,3-DIPROPYL-8-CYCLOPENTYLXANTHINE [DPCPX]] | > 20 | > 20
12 | NC1(C(=O)O)CC1 [1-Aminocyclopropane carboxylic acid] | > 20 | > 20
13 | Cn1cc(CC(N)C(=O)O)c2ccccc21 (stereo unspecified) [1-METHYLTRYPTOPHAN] | > 20 | > 20
14 | O=C(/C=C/c1ccccc1)c1ccc(O)cc1O [2',4'-DIHYDROXYCHALCONE] | > 20 | > 20
15 | CC[C@H]1OC(=O)[C@H](C)[C@@H](O[C@H]2C[C@@](C)(OC)[C@@H](O)[C@H](C)O2)[C@H](C)[C@@H](O[C@@H]2O[C@H](C)C[C@H](N(C)C)[C@H]2OC(C)=O)[C@](C)(O)C[C@@H](C)C(=O)[C@H](C)[C@@H](O)[C@]1(C)O [2'-O-ACETYLERYTHROMYCIN A] | > 20 | > 20
16 | O=[N+]([O-])c1ccc(O)c([N+](=O)[O-])c1 [2,4-DINITROPHENOL] | > 20 | > 20
17 | COC1=CC(=O)C=C(OC)C1=O [2,6-DIMETHOXYQUINONE] | > 20 | > 20

Row | Structure (SMILES) | IC50 [µM] | IC50 (read-out: pIC50 (converted)) [µM]
18 | CC(=O)c1ccc[nH]1 [2-ACETYLPYRROLE] | > 20 | > 20
19 | CC(O)COC[C@H]1O[C@@H]2O[C@H]3[C@H](O)[C@@H](O)[C@@H](O[C@H]4[C@H](O)[C@@H](O)[C@@H](O[C@H]5[C@H](O)[C@@H](O)[C@@H](O[C@H]6[C@H](O)[C@@H](O)[C@@H](O[C@H]7[C@H](O)[C@@H](O)[C@@H](O[C@H]8[C@H](O)[C@@H](O)[C@@H](O[C@H]1[C@H](O)[C@H]2O)O[C@@H]8COCC(C)O)O[C@@H]7COCC(C)O)O[C@@H]6COCC(C)O)O[C@@H]5COCC(C)O)O[C@@H]4COCC(C)O)O[C@@H]3COCC(C)O (stereo partly drawn) [2-HYDROXYPROPYL-BETA-CYCLODEXTRIN] | > 20 | > 20
20 | O=S(=O)(O)CCS [2-MERCAPTOETHANESULFONIC ACID] | > 20 | > 20
21 | COC1(C)CCC2OC2(C)CCC2C1CC2(C)C (stereo unspecified) [2-METHOXY-5 (6)EPOXY-TETRAHYDROCARYOPHYLLENE] | > 20 | > 20
22 | COc1cc2c(cc1O)CC[C@@H]1[C@@H]2CC[C@]2(C)[C@@H](O)CC[C@@H]12 [2-METHOXYESTRADIOL] | > 20 | > 20
23 | Cc1[nH]c2ccccc2c1CN(C)C [2-METHYL GRAMINE] | > 20 | > 20
24 | O=C(O)c1ccccn1 [2-PICOLINIC ACID] | > 20 | > 20
25 | O=c1c(O)c(-c2ccccc2)oc2cc(O)ccc12 [3,7-DIHYDROXYFLAVONE] | > 20 | > 20
26 | CC1(C)CC2C1CCC1(C)OC2(C)CCC1O (stereo unspecified) [3,7-EPOXYCARYOPHYLLAN-6-OL] | > 20 | > 20
27 | CC(=O)c1cc2ccccc2oc1=O [3-ACETYLCOUMARIN] | > 20 | > 20
28 | Cn1c(=O)[nH]c(=O)c2[nH]cnc21 [3-METHYLXANTHINE] | > 20 | > 20
29 | CC1(C)CC23C(=O)CCC(O)C2(C)CCC13 (stereo unspecified) [3-NOR-3-OXOPANASINSAN-6-OL] | > 20 | > 20
30 | [N-]=[N+]=N[C@]1(CO)O[C@@H](n2ccc(N)nc2=O)[C@H](O)[C@@H]1O [4'-AZIDOCYTIDINE] | > 20 | > 20
31 | COc1ccc(C(=O)/C=C/c2ccccc2)cc1 [4'-METHOXYCHALCONE] | > 20 | > 20
32 | COc1ccc(-c2cc(=O)c3ccccc3o2)cc1 [4'-METHOXYFLAVONE] | > 20 | > 20
33 | N#CCCCSC(=N)N [4-ISOTHIOUREIDOBUTYRONITRILE] | > 20 | > 20
